Patent EP0158075A1, “Immuno stimulating composition” (BAYER AG, priority 1984, dated 1985)

Legend:
Salmonella typhimurium [1] = experiment: In vitro direct effect on growth of Salmonella typhimurium; type: cell-based
Salmonella typhimurium [2] = experiment: Survival of mice after intraperitoneal infection with Salmonella typhimurium (Beispiel B); type: in vivo, Mäuse; settings: 10 mg/kg per os once daily on 4 consecutive days, starting 1 day after i.p. infection with 7 x 10^5 colony-forming units
From the text: Substanzen, die die körpereigene Abwehr (Immunsystem) während einer Infektion stimulieren, sind sowohl für die Human- wie für die Veterinärmedizin von großem Interesse, da viele Infektionen trotz guter chemotherapeutischer Möglichkeiten ohne Unterstützung durch körpereigene Abwehrmechanismen persistieren. Dies kann zum erneuten Auftreten von Symptomen (Rezidiv) nach dem überstehen der Ersterkrankung und damit zu chronisch rezidivierenden Krankheiten führen. Unter den durch Bakterien bedingten Erkrankungen sind es besonders Infektionen mit sogenannten fakultativ intrazellulären Bakterien, die Probleme darstellen. Darunter versteht man Bakterien, die sich nach Aufnahme in die Makrophagen (Phagozytose) weiter vermehren. Es bedarf erst einer weiteren Stimulierung der Makrophagen über das Immunsystem, um diese intrazellulären Bakterien abzutöten. Ein Experimentalmodell für eine solche Erkrankung stellt die Infektion der Maus mit Salmonella typhimurium dar. Nach Inokulation der Mäuse mit diesem humanpathogenen Bakterium kommt es in Abhängigkeit von der Infektionsdosis zu einem subakut bis chronischen Krankheitsverlauf, bei dem die Tiere erst nach 4 bis 7 Tagen abzusterben beginnen. Während dieses Zeitraumes besteht die Möglichkeit, das Immunsystem durch Substanzen zu beeinflussen. Bei den meisten anderen tierexperimentellen Infektionen, kommt es zu einem sehr schnellen Absterben der Tiere innerhalb von 1 bis 2 Tagen. Damit besteht keine Möglichkeit mehr, die Abwehr während der Infektion zu stimulieren. 1-[3-Methyl-4-(4'-trifluormethylthio-phenoxy)-phenyl]-3-methyl-1,3,5-triazin-trion wurde Mäusen an 4 aufeinanderfolgenden Tagen einmal täglich per os in unterschiedlichen Dosen verabfolgt, beginnend 1 Tag nach intraperitonealer Infektion mit 7 x 10^5 Kolonien-bildenden Einheiten von Salmonella typhimurium. Diese Infektionsdosis führt bei unbehandelten Tieren innerhalb von 4 bis 6 Tagen zu einem Absterben von 70 bis 90 % der Tiere. […]

## Cc1cc(-n2c(=O)[nH]c(=O)n(C)c2=O)ccc1Oc1ccc(SC(F)(F)F)cc1 [1-[3-Methyl-4-(4'-trifluormethylthio-phenoxy)-phenyl]-3-methyl-1,3,5-triazin-2,4,6-(1H, 3H, 5H)-trion]
Salmonella typhimurium [1]
  direkter Effekt auf die Vermehrung von Salmonella typhimurium: keinen direkten Effekt
Salmonella typhimurium [2]; day 6 after infection
  Überlebende Mäuse (%) an folgenden Tagen nach Infektion: 6. Tag: 90%
Salmonella typhimurium [2]; day 12 after infection
  Überlebende Mäuse (%) an folgenden Tagen nach Infektion: 12. Tag: 60%
Salmonella typhimurium [2]; day 18 after infection
  Überlebende Mäuse (%) an folgenden Tagen nach Infektion: 18. Tag: 60%
